{"source": "patent US6989435B2", "about": "“Compounds and methods to inhibit or augment an inflammatory response” (Cambridge University Technical Services Ltd., priority 1997, dated 2006)", "key": {"[1]": {"test_system": "chemokine-induced THP-1 migration (MCP-1, MIP1α, IL8, SDF1α)", "experiment": "Trans-well THP-1 migration assay, across the chemokines tested", "assay_type": "cell-based, human", "procedure": "To determine whether an agent inhibits a chemokine-induced activity, such as macrophage recruitment, varying amounts of the agent are mixed with cells in the presence of a known chemoattractant. […] Chemokine (such as MCP-1, MIP1α, IL8 or SDF-1α), at a concentration known to cause significant migration of THP-1 cells in the trans-well migration assay, is placed in the lower compartment (FIG. 1). […] After incubation, the cells are gently removed from the top of the filter with a pipette, 20 μl of 20 mM EDTA in simple PBS is added into each top well, and incubated for 20 minutes at 4° C. The filter is carefully flushed with media using a gentle flow, and removed. […] The media is carefully aspirated from each well, and the converted dye is solubilized by 20 μl of DMSO. Absorbance of converted dye is measured at a wavelength of 595 nm using an ELISA plate reader. The number of migrated cells in each well is then determined by interpolation of the standard curve (see also Imai et al., J. Biol. Chem., 272, 15036 (1997)). […] The framed filter was aligned with the holes in the corner of the filter frame and placed over the wells. Five×10^4 THP-1 cells in 25 μl of RPMI-1640 culture media were added to the upper compartment. Peptides were dissolved in Milli Q water and then serially diluted in culture medium. In most cases, the serially diluted peptides were added to the upper compartment of the chemotaxis chamber. […] After incubation, the cells were gently removed from the top of the filter with a pipette, 20 μl of 20 mM EDTA in PBS was added into each top well, and the mixture was incubated for 20 minutes at 4° C. The filter was then carefully flushed with media using a gentle flow, and removed. […] The media was carefully aspirated from each well, and the converted dye was solubilized by 20 μl of DMSO. Absorbance of converted dye was measured at a wavelength of 595 nm using an ELISA plate reader. […] Representative chemokines included a beta-chemokine (“CC”), MIP-1α, and two alpha-chemokines (“CXC”), IL-8 and SDF-1α. […]"}, "[2]": {"test_system": "chemokine-induced migration of peripheral blood monocytes", "experiment": "Chemokine-induced migration of freshly prepared peripheral blood monocytes, each of the four chemokines", "assay_type": "cell-based, human", "conditions": "100 μM; peripheral blood monocytes from 3 donors", "procedure": "(§1) Agents may also be screened in a chemotactic assay which employs human neutrophils, eosinophils, mast cells, basophils, platelets, lymphocytes or monocytes. For monocytes, 9 mls of fresh blood are transferred to a tube containing 1 ml of 3.8% sodium citrate, and left at room temperature for 15 minutes. Five mls of this anti-coagulated blood are carefully layered over 3.5 ml Polymorphprep® (Nycomed Pharma, Oslo), and centrifuged at 500 g for 35 minutes per the manufacturer's instructions. The top band at the sample/medium interface contains monocytes. The monocytes are carefully removed with a glass pipette, and reconstituted to the original volume (5 ml). The cells are washed with PBS plus 10% fetal calf serum, and centrifuged at 400 g for 10 minutes. The washing step is repeated three times before the cells are counted. Cells are resuspended at 1×10^7 cells/ml in RPMI-1640+10% fetal calf serum (FCS). The monocytes are cultured for two days at 37° C. in a humidified atmosphere of 5% CO2.\n(§2) On day 2, the cells are counted, spun down, and reconstituted to 1×10^7 cells/ml in Gey's balanced salt solution+1 mg/ml bovine serum albumin (BSA). […]"}, "[3]": {"test_system": "cultured smooth muscle cells", "experiment": "Co-mitogenic effect of MCP-1 with 0.5% fetal calf serum", "assay_type": "cell-based", "conditions": "100 μM peptide", "procedure": "Many chemokines are co-mitogenic with low concentrations of FCS, e.g., 50 ng/ml MCP-1+0.5% FCS is a mitogen for smooth muscle cells. Assays well known to the art for determination of DNA synthesis induced by any known chemokine plus a low concentration (<5%) of FCS on suitable cells (e.g., smooth muscle cells) in the presence and absence of the agent may be employed to screen agents for such inhibitory activity. See Porreca et al., J. Vasc. Res., 34, 58 (1997), the disclosure of which is incorporated by reference herein.\nPeptide 3(1-12)[MCP-1] […] MCP-1 has been reported to be a weak co-mitogen with 0.5% fetal calf serum for cultured smooth muscle cells. […] (SEQ ID NO:1) is an MCP-1 receptor antagonist. The observation that peptide 3(1-12) [MCP-1]"}, "[4]": {"test_system": "TGFβ1 induced human monocyte migration", "experiment": "Human monocyte migration, TGFβ1 induced", "assay_type": "cell-based", "procedure": "as §1, §2"}}}
{"sequence": "EICADPKQKWVQ [Peptide 3]", "values": [{"measurement": "inhibition of migration induced by any of the chemokines of either family", "setting": "[1]; 100 μM, THP-1", "value": "> 99", "unit": "%"}, {"measurement": "CC SPECIFICITY", "setting": "[1]; Table 7, average inhibitory ED50 versus SDF1 and IL8 divided by average inhibitory ED50 versus MCP-1 and MIP1α", "value": 1.5}, {"measurement": "inhibition of monocyte migration induced with each of the four chemokines", "setting": "[2]", "value": "> 95", "unit": "%"}, {"measurement": "effect on the co-mitogenic effect of MCP-1 for cultured smooth muscle cells", "setting": "[3]", "value": "completely abolished"}, {"measurement": "effect on TGF-beta induced monocyte migration", "setting": "[4]; 100 μM", "value": "did not affect"}, {"measurement": "Extent of inhibition of human monocyte migration at 100 μM, TGFβ1", "setting": "[4]; Table 4(c), 100 μM peptide, n.s. = no statistically significant inhibition", "value": "n.s."}]}
